Source: PMC5988656, “Phase I studies of AZD1208, a proviral integration Moloney virus kinase inhibitor in solid and haematological cancers” (British Journal of Cancer, 2018)

Test system: patients with recurrent or refractory AML
Test: AML dose-escalation study: safety and tolerability (AEs, DLTs)
Assay type: in vivo, human
From the text: Conducted at three centres in the USA and one in Canada. Dose escalation followed a conventional 3 + 3 design. […] In the first cohort, dosing between the first and subsequent patients was staggered with a 7-day interval. Dose-escalation decisions were based on the safety and tolerability data from ≥3 evaluable patients (or six if one of the first three patients experienced a dose-limiting toxicity [DLT]).
AZD1208 could be escalated by up to 100% in subsequent cohorts until one DLT was observed, after which succeeding doses were escalated by up to 50%.
In the case of a DLT, the cohort was expanded to six patients. If a DLT occurred in ≥2 patients within a cohort, the dose was determined to be a non-tolerated dose (NTD) and dose escalation was stopped.
Grade 3 or 4 toxicities not attributable to the disease or disease-related processes under investigation, and occurring before the end of Cycle 1, were considered DLTs.
The NTD was identified as the dose at which ≥2 DLTs occurred in a given cohort.

Structure (SMILES): N[C@@H]1CCCN(c2c(/C=C3\SC(=O)NC3=O)cccc2-c2ccccc2)C1 [AZD1208]
- Hyperglycaemia (all-grade AE) (700 mg, n = 7): 1 (14.3) n (%)
- Hypocalcaemia (all-grade AE) (700 mg, n = 7): 3 (42.9) n (%)
- Hypokalaemia (all-grade AE) (700 mg, n = 7): 2 (28.6) n (%)
- Hypomagnesaemia (all-grade AE) (700 mg, n = 7): 2 (28.6) n (%)
- Hypophosphataemia (all-grade AE) (700 mg, n = 7): 1 (14.3) n (%)
- Hypotension (all-grade AE) (700 mg, n = 7): 3 (42.9) n (%)
- Maculopapular rash (all-grade AE) (700 mg, n = 7): 2 (28.6) n (%)
- Nausea (all-grade AE) (700 mg, n = 7): 5 (71.4) n (%)
- Oedema peripheral (all-grade AE) (700 mg, n = 7): 2 (28.6) n (%)
- Patients with any AE (all-grade AE) (700 mg, n = 7): 7 (100.0) n (%)
- Pneumonia (all-grade AE) (700 mg, n = 7): 0 n (%)
- Pyrexia (all-grade AE) (700 mg, n = 7): 0 n (%)
- Rash (all-grade AE) (700 mg, n = 7): 1 (14.3) n (%)
- Renal failure acute (all-grade AE) (700 mg, n = 7): 1 (14.3) n (%)
- Stomatitis (all-grade AE) (700 mg, n = 7): 0 n (%)
- Vision blurred (all-grade AE) (700 mg, n = 7): 0 n (%)
- Vomiting (all-grade AE) (700 mg, n = 7): 2 (28.6) n (%)
- Patients in whom AZD1208 was discontinued as a result of SAEs and AEs (900 mg (acute coronary syndrome, rash)): 2 n
- Tolerability (900 mg QD): not tolerated
- Abdominal pain (all-grade AE) (900 mg, n = 9): 1 (11.1) n (%)
- Asthenia (all-grade AE) (900 mg, n = 9): 2 (22.2) n (%)
- Chills (all-grade AE) (900 mg, n = 9): 2 (22.2) n (%)
- Cough (all-grade AE) (900 mg, n = 9): 2 (22.2) n (%)
- DLT detail, action taken (900 mg, n = 9): Rash, drug permanently discontinued; maculopapular rash, drug permanently discontinued
- Decreased appetite (all-grade AE) (900 mg, n = 9): 1 (11.1) n (%)
- Dehydration (all-grade AE) (900 mg, n = 9): 4 (44.4) n (%)
- Diarrhoea (all-grade AE) (900 mg, n = 9): 4 (44.4) n (%)
- Dyspnoea (all-grade AE) (900 mg, n = 9): 2 (22.2) n (%)
- Fatigue (all-grade AE) (900 mg, n = 9): 2 (22.2) n (%)
- Febrile neutropenia (all-grade AE) (900 mg, n = 9): 3 (33.3) n (%)
- Headache (all-grade AE) (900 mg, n = 9): 0 n (%)
- Hyperglycaemia (all-grade AE) (900 mg, n = 9): 2 (22.2) n (%)
- Hypocalcaemia (all-grade AE) (900 mg, n = 9): 1 (11.1) n (%)
- Hypokalaemia (all-grade AE) (900 mg, n = 9): 2 (22.2) n (%)
- Hypomagnesaemia (all-grade AE) (900 mg, n = 9): 1 (11.1) n (%)
- Hypophosphataemia (all-grade AE) (900 mg, n = 9): 2 (22.2) n (%)
- Hypotension (all-grade AE) (900 mg, n = 9): 2 (22.2) n (%)
- Maculopapular rash (all-grade AE) (900 mg, n = 9): 1 (11.1) n (%)
- Nausea (all-grade AE) (900 mg, n = 9): 2 (22.2) n (%)
- Oedema peripheral (all-grade AE) (900 mg, n = 9): 2 (22.2) n (%)
- Patients with any AE (all-grade AE) (900 mg, n = 9): 9 (100.0) n (%)
- Pneumonia (all-grade AE) (900 mg, n = 9): 0 n (%)
- Pyrexia (all-grade AE) (900 mg, n = 9): 3 (33.3) n (%)
- Rash (all-grade AE) (900 mg, n = 9): 2 (22.2) n (%)
- Renal failure acute (all-grade AE) (900 mg, n = 9): 0 n (%)
- Stomatitis (all-grade AE) (900 mg, n = 9): 0 n (%)
- Vision blurred (all-grade AE) (900 mg, n = 9): 0 n (%)
- Vomiting (all-grade AE) (900 mg, n = 9): 1 (11.1) n (%)
- Abdominal pain (all-grade AE) (Total N = 32): 6 (18.8) n (%)
- Asthenia (all-grade AE) (Total N = 32): 5 (15.6) n (%)
- Chills (all-grade AE) (Total N = 32): 4 (12.5) n (%)
- Cough (all-grade AE) (Total N = 32): 8 (25.0) n (%)
- Decreased appetite (all-grade AE) (Total N = 32): 4 (12.5) n (%)
- Dehydration (all-grade AE) (Total N = 32): 4 (12.5) n (%)
- Diarrhoea (all-grade AE) (Total N = 32): 14 (43.8) n (%)
- Dyspnoea (all-grade AE) (Total N = 32): 7 (21.9) n (%)
- Fatigue (all-grade AE) (Total N = 32): 10 (31.3) n (%)
- Febrile neutropenia (all-grade AE) (Total N = 32): 9 (28.1) n (%)
- Headache (all-grade AE) (Total N = 32): 4 (12.5) n (%)
- Hyperglycaemia (all-grade AE) (Total N = 32): 5 (15.6) n (%)
- Hypocalcaemia (all-grade AE) (Total N = 32): 7 (21.9) n (%)
- Hypokalaemia (all-grade AE) (Total N = 32): 7 (21.9) n (%)
- Hypomagnesaemia (all-grade AE) (Total N = 32): 7 (21.9) n (%)
- Hypophosphataemia (all-grade AE) (Total N = 32): 6 (18.8) n (%)
- Hypotension (all-grade AE) (Total N = 32): 10 (31.3) n (%)
- Maculopapular rash (all-grade AE) (Total N = 32): 4 (12.5) n (%)
- Nausea (all-grade AE) (Total N = 32): 15 (46.9) n (%)
- Oedema peripheral (all-grade AE) (Total N = 32): 9 (28.1) n (%)
- Patients with any AE (all-grade AE) (Total N = 32): 31 (96.9) n (%)
- Pneumonia (all-grade AE) (Total N = 32): 6 (18.8) n (%)
- Pyrexia (all-grade AE) (Total N = 32): 4 (12.5) n (%)
- Rash (all-grade AE) (Total N = 32): 4 (12.5) n (%)
- Renal failure acute (all-grade AE) (Total N = 32): 4 (12.5) n (%)
- Stomatitis (all-grade AE) (Total N = 32): 5 (15.6) n (%)
- Vision blurred (all-grade AE) (Total N = 32): 4 (12.5) n (%)
- Vomiting (all-grade AE) (Total N = 32): 10 (31.3) n (%)
- Deaths during the study (all attributed to disease progression): nine
- ECG abnormalities (all doses): No clinically significant ECG abnormalities
- Patients with DLTs (all doses): five
- AEs judged possibly related to AZD1208, patients (all doses, 32 patients): 68.8%
- AZD1208 discontinued as a result of SAEs and AEs, patients (all doses, 32 patients): 25%
- Diarrhoea possibly related to AZD1208, patients (all doses, 32 patients): 21.9%
- Diarrhoea, patients (all doses, 32 patients): 43.8%
- Fatigue possibly related to AZD1208, patients (all doses, 32 patients): 18.8%
- Gastrointestinal disorders AEs, patients (all doses, 32 patients): 87.5%
- Grade ≥3 febrile neutropenia, patients (all doses, 32 patients): 28.1%
- Grade ≥3 hypotension, patients (all doses, 32 patients): 18.8%
- Grade ≥3 pneumonia, patients (all doses, 32 patients): 15.6%
- Nausea possibly related to AZD1208, patients (all doses, 32 patients): 37.5%
- Nausea, patients (all doses, 32 patients): 46.9%
- Patients who experienced an AE (all doses, 32 patients): 96.9%
- Patients with a grade ≥3 AE (all doses, 32 patients): 24 n
- SAE abdominal pain, patients (all doses, 32 patients): 6.3%
- SAE back pain, patients (all doses, 32 patients): 6.3%
- SAE febrile neutropenia, patients (all doses, 32 patients): 25.0%
- SAE hypotension, patients (all doses, 32 patients): 6.3%
- SAE maculopapular rash, patients (all doses, 32 patients): 6.3%
- Serious AEs (SAEs), patients (all doses, 32 patients): 71.9%
- Treatment-related SAEs, patients (all doses, 32 patients): 15.6%
- Vomiting possibly related to AZD1208, patients (all doses, 32 patients): 18.8%
- Time of DLT occurrence after the start of treatment (five patients with DLTs): 1 to 10 days
- Doses generally tolerated (heavily pretreated AML, QD oral): up to 700 mg
